Measurements reported in patent publication US20140314857A1, “FORMULATIONS FOR ENHANCED BIOAVAILABILITY OF ZANAMIVIR” (priority 2012, published 2014).
Several values for one entry are separate records, joined by “and”; a condition that tells them apart may be missing. Equal values may be shown once.

Experiments:
[1] = Intravenous and intraduodenal bioavailability of zanamivir from three formulations (Example 5); details: for C0: extrapolated to t = 0; for concentration at 0.25 hr / concentration at 0.5 hr / concentration at 0.83 hr / concentration at 1 hr / concentration at 1.5 hr / concentration at 2 hr / concentration at 0.033 hr / concentration at 0.083 hr: 1.5 mg/animal, Plasma concentration; for clearance: CL; for Vd: Vss
From the text: (§1) Male Sprague-Dawley rats (Hilltop Labs), 3 animals per treatment group, 250-350 grams in weight, were fitted with a jugular vein cannula (JVC). Animals intended for intraduodenal dosing were also fitted with one or more intraduodenal cannula (IDC) and those intended for intravenous dosing were fitted with a second JVC. Food was withheld from the animals for a minimum of twelve hours prior to test article administration and was returned approximately four hours post-dose. Water was supplied ad libitum.
(§2) Intraduodenal doses composed of 1.5 mg of zanamivir and varying amounts of an enhancer (glycerol or Capmul MCM L8) were injected directly into the duodenum via the IDC. Intravenous dosing was conducted by the injection of 1.5 mg of zanamivir in 200 μL of PBS through a JVC. For some experiments, the absorption enhancer was administered intraduodenally 2 hr prior to administering 1.5 mg of zanamivir in PBS through a second IDC. Each intraduodenal dose was followed with the introduction of a small air bubble (˜10 μL) in the cannula followed by a flush of 125 μL of PBS to ensure the dose was given in full. The volume of PBS used for cannula flush was consistent across the treatment groups. The cannula was tied to prevent the PBS remaining in the cannula from entering the duodenum.
(§3) Blood samples collected via the JVC, approximately 400 μL each, were obtained at 2 min, 5 min, 15 min, 30 min, 60 min, 90 min, and 120 min, with sodium heparin used as an anti-coagulant. Each sample was placed into a chilled tube containing the anticoagulant and kept on ice until centrifugation at 4° C., 3,000×g, for 5 min. The plasma supernatants were stored at −70° C. until LC-MS analysis.
Dosing solution samples were assayed by LC-MS/MS using electrospray ionization. The chromatographic system consisted of Perkin Elmer series 200 micropumps and autosampler equipped with a Waters Atlantic® HILIC Silica 3 μM, 2.1×50 mm column. The mass spectrometer was a PE Sciex API 4000 with electrospray interface in multiple reaction monitoring mode. […] Stock solutions (1 mg/mL zanamivir) were prepared in water. Standards (eight concentrations) were prepared in the appropriate matched matrix (HBSSg or Sprague-Dawley rat plasma containing sodium heparin) and diluted 50-fold with methanol. Experimental samples were treated identically.
Standards and samples were prepared in Sprague Dawley rat plasma containing sodium heparin as an anticoagulant. An eight-point calibration curve was prepared at concentrations of 1000, 750, 500, 250, 100, 50, 25, and 10 ng/mL by serial dilution. Standard samples were treated identically to the study samples.
Plasma samples were extracted by protein precipitation in methanol.
In this example, the bioavailability of Zanamivir was evaluated after intravenous and intraduodenal doses in male Sprague-Dawley rats. The test compound was dosed at 1.5 mg/animal through intravenous and intraduodenal routes from different formulations. Plasma levels were determined by LC-MS/MS analysis. Pharmacokinetic parameters were estimated by a non-compartmental model using WinNonlin v4.1 software.

[2] = Varying zanamivir levels at fixed 50 µL Capmul MCM L8, intraduodenal administration; type: in vivo, male Sprague-Dawley rats; details: male, Sprague-Dawley, rat, plasma, ID
From the text: as §1
as §2, with “Intravenous” for “Intraduodenal doses composed of 1.5 mg of zanamivir and varying amounts of an enhancer (glycerol or Capmul MCM L8) were injected directly into the duodenum via the IDC. Intravenous”
as §3

[3] = test system: Caco-2 cell monolayers; assay: Unidirectional (A-to-B) permeability of zanamivir across Caco-2 cell monolayers with and without excipients; type: in vitro ADME; details: vs no enhancer
Protocol: Caco-2 cells were obtained from American Type Culture Collection (Rockville, Md.). Stock cultures were maintained in flasks with DMEM medium supplemented with 10% FBS, 1% non-essential amino acids, 1 mmol/L sodium pyruvate, 100 IU/mL penicillin, and 100 μg/mL streptomycin in a humidified incubator (37° C., 5% CO2). Cells were harvested by trypsinization and seeded at 60,000 cells/cm^2 onto Costar Transwell® 12-well dual-chamber plates with collagen-coated, microporous polycarbonate membranes (1.13 cm^2 insert area, 0.4 μm pore size; Corning Life Sciences, Acton, Mass.) for permeability studies. The culture medium was changed three times per week. […]
Unidirectional (A-to-B) permeability of zanamivir was determined at 15 μg/mL in the absence and presence of varying concentrations of excipients in Caco-2 cell monolayers. […]
Assays were conducted by seeding approximately 68,000 viable Caco-2 cells in 1.12 cm^2 Costar Transwell inserts (12-well format, 0.4 micron pore size PET membranes) in Dulbecco's Modified Eagles Medium (high glucose) supplemented with 20% fetal bovine serum, glutamine, pyruvate, non-essential amino acids, epidermal growth factor, ITS (insulin, transferrin, selenium), and penicillin/streptomycin. […] Transepithelial electrical resistance (TEER) readings were conducted to test the quality of the cell monolayer on the Transwell membrane. […]

[4] = IV 1.5 mg/animal, Normal Saline, Ex.5, individual rats
[5] = male, Sprague-Dawley, rat, in vivo, ID 1.5 mg/animal, Capmul MCM L8 50 µL, Ex.5, mean
[6] = male, Sprague-Dawley, rat, in vivo, ID 1.5 mg/animal, Glycerol 50 µL, individual rats
[7] = male, Sprague-Dawley, rat, in vivo, ID 1.5 mg/animal, Glycerol 50 µL, mean
[8] = male, Sprague-Dawley, rat, in vivo, ID 1.5 mg/animal, PBS 50 µL, mean
[9] = male, Sprague-Dawley, rat, in vivo, ID 1.5 mg/animal, PBS 50 µL, individual rats
[10] = male, Sprague-Dawley, rat, in vivo, ID 1.5 mg/animal, PBS, 50 µL blank glycerol -2 hr, individual rats
[11] = male, Sprague-Dawley, rat, in vivo, ID 1.5 mg/animal, PBS, 50 µL blank glycerol -2 hr, mean
[12] = male, Sprague-Dawley, rat, in vivo, iv, 1.5 mg, IV 1.5 mg/animal, Normal Saline, Ex.5, individual rats
[13] = male, Sprague-Dawley, rat, in vivo, iv, 1.5 mg, IV 1.5 mg/animal, Normal Saline, Ex.5, mean
[14] = male, Sprague-Dawley, rat, in vivo, iv, IV 1.5 mg/animal, Normal Saline, Ex.5, individual rats
[15] = male, Sprague-Dawley, rat, in vivo, iv, IV 1.5 mg/animal, Normal Saline, Ex.5, mean

CC(=O)NC1C(NC(=N)N)C=C(C(=O)O)OC1C(O)C(O)CO (stereo not drawn) [Zanamivir, 5-acetamido-4-guanidino-6-(1,2,3-trihydroxypropyl)-5,6-dihydro-4H-pyran-2-carboxylic acid]
T1/2 ([1]; ID 1.5 mg/animal, Capmul MCM L8 50 µL, Ex.5, individual rats): 27 min and 33 min
t1/2 ([1]; ID 1.5 mg/animal, PBS, 50 µL blank glycerol -2 hr, individual rats): 39.6 min and 110 min
Plasma concentration ([1]; IV 1.5 mg/animal, Normal Saline, Ex.5, 0.083 hr, individual rats): 17900 ng/mL and 16300 ng/mL
C0 [1, 4]: 26943 ng/mL and 32278 ng/mL
CL [1, 4]: 7.83 mL/min/kg and 8.67 mL/min/kg
Vss [1, 4]: 0.26 L/kg
t1/2 [1, 4]: 27.6 min
half-life ([1]; male, Sprague-Dawley, rat, in vivo, 1.5 mg, T1/2, ID 1.5 mg/animal, Capmul MCM L8 50 µL, Ex.5, individual rats): 28.2 min
half-life ([1]; male, Sprague-Dawley, rat, in vivo, 1.5 mg, T1/2, ID 1.5 mg/animal, Capmul MCM L8 50 µL, Ex.5, mean): 29.4 min
half-life ([1]; male, Sprague-Dawley, rat, in vivo, 1.5 mg, t1/2, ID 1.5 mg/animal, Glycerol 50 µL, individual rats): 17.4 min
half-life ([1]; male, Sprague-Dawley, rat, in vivo, 1.5 mg, t1/2, ID 1.5 mg/animal, Glycerol 50 µL, mean): 17.4 min
half-life ([1]; male, Sprague-Dawley, rat, in vivo, 1.5 mg, t1/2, ID 1.5 mg/animal, PBS 50 µL, individual rats): 49.8 min
half-life ([1]; male, Sprague-Dawley, rat, in vivo, 1.5 mg, t1/2, ID 1.5 mg/animal, PBS 50 µL, mean): 49.8 min
half-life ([1]; male, Sprague-Dawley, rat, in vivo, 1.5 mg, t1/2, ID 1.5 mg/animal, PBS, 50 µL blank glycerol -2 hr, mean): 74.4 min
Tmax ([1]; male, Sprague-Dawley, rat, in vivo, 1.5 mg, ID 1.5 mg/animal, Glycerol 50 µL, mean): 30 min
Tmax ([1]; male, Sprague-Dawley, rat, in vivo, 1.5 mg, ID 1.5 mg/animal, PBS 50 µL, individual rats): 30 min
Tmax ([1]; male, Sprague-Dawley, rat, in vivo, 1.5 mg, ID 1.5 mg/animal, PBS 50 µL, mean): 30 min
Tmax ([1]; male, Sprague-Dawley, rat, in vivo, 1.5 mg, ID 1.5 mg/animal, PBS, 50 µL blank glycerol -2 hr, mean): 34.8 min
concentration at 0.25 hr [1, 5]: 4350 ng/mL
concentration at 0.5 hr [1, 5]: 2910 ng/mL
concentration at 0.83 hr [1, 5]: 7230 ng/mL
concentration at 1 hr [1, 5]: 1080 ng/mL
concentration at 1.5 hr [1, 5]: 578 ng/mL
concentration at 2 hr [1, 5]: 274 ng/mL
concentration at 0.25 hr [1, 6]: 1060 ng/mL
concentration at 0.25 hr [1, 7]: 928 ng/mL
concentration at 0.5 hr [1, 6]: 817 ng/mL
concentration at 0.5 hr [1, 7]: 744 ng/mL
concentration at 0.83 hr [1, 6]: 123 ng/mL
concentration at 0.83 hr [1, 7]: 102 ng/mL
concentration at 1 hr [1, 7]: 415 ng/mL
concentration at 1.5 hr [1, 6]: 123 ng/mL
concentration at 1.5 hr [1, 7]: 93 ng/mL
concentration at 2 hr [1, 6]: 52.1 ng/mL
concentration at 2 hr [1, 7]: 61 ng/mL
concentration at 0.25 hr [1, 8]: 96 ng/mL
concentration at 0.5 hr [1, 8]: 134 ng/mL
concentration at 0.83 hr [1, 8]: 38.7 ng/mL
concentration at 1 hr [1, 8]: 86.4 ng/mL
concentration at 1.5 hr [1, 9]: 59.6 ng/mL
concentration at 1.5 hr [1, 8]: 61.1 ng/mL
concentration at 2 hr [1, 9]: 60.2 ng/mL
concentration at 2 hr [1, 8]: 52.1 ng/mL
concentration at 0.25 hr [1, 10]: 60.9 ng/mL
concentration at 0.25 hr [1, 11]: 59.3 ng/mL
concentration at 0.5 hr [1, 11]: 66.3 ng/mL
concentration at 0.83 hr [1, 10]: 55.3 ng/mL
concentration at 0.83 hr [1, 11]: 52.2 ng/mL
concentration at 1 hr [1, 11]: 63.7 ng/mL
concentration at 1.5 hr [1, 11]: 47.5 ng/mL
concentration at 2 hr [1, 11]: 51.4 ng/mL
bioavailability ([1]; male, Sprague-Dawley, rat, in vivo, inherent absolute bioavailability): < 2%
C0 ([1]; male, Sprague-Dawley, rat, in vivo, iv, 1.5 mg, C0, IV 1.5 mg/animal, Normal Saline, Ex.5, individual rats): 33400 ng/mL
C0 ([1]; male, Sprague-Dawley, rat, in vivo, iv, 1.5 mg, C0, IV 1.5 mg/animal, Normal Saline, Ex.5, mean): 30900 ± 3440 ng/mL
clearance [1, 12]: 8.17 mL/min/kg
clearance [1, 13]: 8.17 mL/min/kg
Vd [1, 12]: 0.21 L/kg
Vd [1, 13]: 0.24 ± 0.02 L/kg
half-life ([1]; male, Sprague-Dawley, rat, in vivo, iv, 1.5 mg, t1/2, IV 1.5 mg/animal, Normal Saline, Ex.5, individual rats): 30.6 min
half-life ([1]; male, Sprague-Dawley, rat, in vivo, iv, 1.5 mg, t1/2, IV 1.5 mg/animal, Normal Saline, Ex.5, mean): 29.4 ± 1.8 min
Tmax [1, 12]: 0 min
Tmax [1, 13]: 0 min
concentration at 0.033 hr [1, 14]: 26900 ng/mL
concentration at 0.033 hr [1, 15]: 24800 ng/mL
concentration at 0.083 hr ([1]; male, Sprague-Dawley, rat, in vivo, iv, IV 1.5 mg/animal, Normal Saline, Ex.5, 0.083 hr, individual rats): 19400 ng/mL
concentration at 0.083 hr ([1]; male, Sprague-Dawley, rat, in vivo, iv, IV 1.5 mg/animal, Normal Saline, Ex.5, 0.083 hr, mean): 17900 ng/mL
concentration at 0.25 hr [1, 14]: 11700 ng/mL
concentration at 0.25 hr [1, 15]: 11200 ng/mL
concentration at 0.5 hr [1, 14]: 6610 ng/mL
concentration at 0.5 hr [1, 15]: 6450 ng/mL
concentration at 1 hr [1, 14]: 1650 ng/mL
concentration at 1 hr [1, 15]: 2100 ng/mL
concentration at 1.5 hr [1, 14]: 709 ng/mL
concentration at 1.5 hr [1, 15]: 817 ng/mL
concentration at 2 hr [1, 14]: 423 ng/mL
concentration at 2 hr [1, 15]: 513 ng/mL
Tmax ([2]; 0.75 mg zanamivir in 50 µL Capmul MCM L8): 4.8 min
Tmax ([2]; 1.5 mg zanamivir in 50 µL Capmul MCM L8): 4.8 min
Tmax ([2]; 3.0 mg zanamivir in 50 µL Capmul MCM L8): 8.4 min
increase in apparent permeability coefficient (Papp) ([3]; optimized concentration of Capmul MCM L8 (0.25%)): > 5 fold
increase in apparent permeability coefficient (Papp) ([3]; optimized concentration of glycerol (5%)): > 5 fold
